The target in one assay is T1, NEDD4-1 HECT domain (Homo sapiens, UniProt P46934).
T1 construct: to elute NEDD4-1 HECT domain (50 mM HEPES, 150 mM NaCl, 0.1 mM EDTA 1 mM DTT); GST (N, cleaved yes); made in house; host or cells: E. coli BL21
T1 sequence (P46934 with tags, fused parts or gaps): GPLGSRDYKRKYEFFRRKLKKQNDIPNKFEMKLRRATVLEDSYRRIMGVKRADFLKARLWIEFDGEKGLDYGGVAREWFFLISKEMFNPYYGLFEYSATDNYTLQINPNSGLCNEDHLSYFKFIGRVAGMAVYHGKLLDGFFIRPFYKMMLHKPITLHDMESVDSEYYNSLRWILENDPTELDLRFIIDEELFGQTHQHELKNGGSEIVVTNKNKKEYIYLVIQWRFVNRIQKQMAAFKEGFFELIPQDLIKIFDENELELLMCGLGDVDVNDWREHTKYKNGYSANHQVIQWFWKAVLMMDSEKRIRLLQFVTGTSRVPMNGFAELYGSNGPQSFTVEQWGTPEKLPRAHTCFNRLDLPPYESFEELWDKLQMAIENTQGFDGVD
The assay is described as follows: Covalent labeling of NEDD4-1 HECT domain (gel filtration, whole protein ESI-MS). Format: binding. To be noted: compound 100 μM, NEDD4-1 HECT 10 μM, 4 h. The method, then:
10 μM of NEDD4-1 HECT domain in 50 mM HEPES 150 mM NaCl 0.1 mM EDTA 1 mM DTT pH 7.5 was treated with a mixture of ten fragments (from 10 mM each DMSO stock solution mixtures; final concentrations: 100 μM of each fragment, and 1% DMSO). Fragment structures and mixture compositions were the same as reported previously. The reaction mixture was incubated for 4 h at 23° C. before being passed through Zeba gel filtration columns (Thermo, 7K MWCO) to remove unreacted fragments. The protein solution was then immediately analyzed by whole protein LC/ESI-MS.
Accurate-mass data were obtained on an Agilent 6210A LC-TOF mass spectrometer in positive ion mode using electrospray ionization. Samples were chromatographed on the LC-TOF instrument using a Poroshell 120 EC-C18 HPLC column (2.1*50 mm, 2.7 micron), an Agilent Series 1200 HPLC binary pump, and an Agilent Series 1200 autoinjector. The HPLC column was held at 45° C. and the autosampler was held at 8° C. Mobile Phase A was a solution of 0.1% formic acid in water:acetonitrile (19:1). Mobile Phase B was a solution of 0.1% formic acid in acetonitrile. The flow rate was set to 250 μL/min. The gradient used was 0% B for 2 minutes, ramping linearly to 90% B from 2 minutes to 5 minutes, holding at 90% B from 5 minutes to 7 minutes, and then returning to 0% B at 7.1 minutes. The column was allowed to equilibrate for 2.7 minutes before the next injection was initiated. The eluent from the column was diverted to waste for the first 2 minutes. The spectra were acquired from 301 to 3200 daltons using a gas temperature of 340° C., a gas flow of 7 liters/min, and the nebulizer gas at 35 psi. The following voltages were used: capillary 4200 V, fragmentor 230V, skimmer 64V, and octapole RF peak 250V. Spectra were acquired at a rate of 1 spectra/sec. The data was processed using MassHunter software version B.02.00. Maximum entropy deconvolutions were performed with a Mass Step of 1, S/N Threshold of 30, Average Mass at 90% of Peak Height, and 5 Charge States Minimum.
10 μM of NEDD4-1 HECT domain in 50 mM HEPES 150 mM NaCl 0.1 mM EDTA 1 mM DTT pH 7.5 was treated with 1 mM of inhibitor 1 or 2 (from 100 mM DMSO stock solution; final concentrations: 1 mM of inhibitor, 1% DMSO, and 0.2% CHAPS to solubilize the inhibitors at 1 mM). The reaction mixture was incubated for 4 h at 23° C. before being passed through Zeba gel filtration columns (Thermo, 7K MWCO) to remove unreacted inhibitor. The protein solution was then immediately used for crystallization or enzymatic assay.
A general note: In gel filtration, larger molecules generally elute earlier.

Assay [1] in a line: NMR rate studies: pseudo-first order reaction with N-acetylcysteine methyl ester. Format: physicochemical. Conditions: electrophile 10 mM, N-acetyl cysteine methyl ester 78 mM, 2:1 deuterated PBS:DMSO-d6, pD 8, NMR. An excerpt: We further validated the utility of electrophile 3 as a thiol-reactive tether by making a library of one hundred structurally diverse drug-like fragments 6-105 containing this electrophile. The library was constructed with an HBTU amide coupling with commercially available carboxylic acid fragments (FIG. 2A). The acids were selected with “rule of three” criteria^15 and a subsequent diversity analysis. We measured the reaction rates for the first fifty fragments to confirm that this library would have balanced cysteine reactivity and could be used for irreversible tethering (FIG. 2B).
N-Acetyl cysteine methyl ester was dissolved in 2:1 deuterated PBS:DMSO-d6 (78 mM) with 10 mM CH2Cl2 as an internal standard. The electrophile (10 mM) was then added immediately prior to acquiring spectra. H1 spectra were taken every 30 s for 30 min (or every 4 s for 5 min for highly reactive compounds 1c and 2a-c). The integrals of the vinyl peaks were used to determine the concentration of the electrophile over time. The natural logarithm of the concentration of the electrophile versus time was then plotted using GraphPad Prism software. The linear slope of this plot was used to determine the pseudofirst order rate constant. Deuterated PBS recipe: 20 mM Na3PO4, 50 mM NaCl in D2O was adjusted to pD 8 with DC1 solution.

SMILES strings stand for the structures.

As to `CCOc1ccc2c(c1)c(C(=O)NC/C=C/C(=O)OC)c(C)n2C` [Compound 10, Methyl(E)-4-(5-ethoxy-1,2-dimethyl-1H-indole-3-carboxamido)but-2-enoate], at NEDD4-1 HECT domain, the “labeling of NEDD4-1 HECT domain (qualitative)” value is “did not label NEDD4-1”.

The compound `COC(=O)/C=C/CNC(=O)c1c(C)[nH]c2ccc(OC)cc12` [Compound 12, Methyl(E)-4-(5-methoxy-2-methyl-1H-indole-3-carboxamido)but-2-enoate] registered a k pseudo-first order in assay [1] of 0.000654 s⁻¹.

`COC(=O)/C=C/CNC(=O)c1c[nH]c2ccc(OC)cc12` [Compound 13, Methyl(E)-4-(5-methoxy-1H-indole-3-carboxamido)but-2-enoate] displayed a k pseudo-first order in assay [1] of 0.0003582 s⁻¹.

The compound `CCn1c(C)c(C(=O)NC/C=C/C(=O)OC)c2cc(OC)ccc21` [Compound 14, Methyl(E)-4-(1-ethyl-5-methoxy-2-methyl-1H-indole-3-carboxamido)but-2-enoate] registered a k pseudo-first order in assay [1] of 0.0005016 s⁻¹.

In turn, `COC(=O)/C=C/CNC(=O)C1CC(=O)N(C)c2ccccc21` (stereo not drawn) [Compound 15] gave a k pseudo-first order in assay [1] of 0.0007733 s⁻¹.

In assay [1], `COC(=O)/C=C/CNC(=O)C1Cc2ccccc2CN1C` (stereo not drawn) [Compound 16] had a k pseudo-first order of 0.0006414 s⁻¹.

Turning to `COC(=O)/C=C/CNC(=O)c1sc(C(C)C)nc1C` [Compound 17], in assay [1], the k pseudo-first order was 0.0006156 s⁻¹.

As for `CCC(C(=O)NC/C=C/C(=O)OC)N1Cc2ccccc2C1=O` (stereo not drawn) [Compound 18], in assay [1], the k pseudo-first order came to 0.0006093 s⁻¹.

Take `COC(=O)/C=C/CNC(=O)CN(C)C1CCCC1` [Compound 20]: the k pseudo-first order in assay [1] came out at 0.0005603 s⁻¹.

With `COC(=O)/C=C/CNC(=O)Cn1ncc2ccccc21` [Compound 21], the k pseudo-first order in assay [1] was 0.0003327 s⁻¹.

Regarding `COC(=O)/C=C/CNC(=O)c1ccc(-c2ccc(C)o2)cc1` [Compound 23], the k pseudo-first order in assay [1] is 0.0004979 s⁻¹.

As for `COC(=O)/C=C/CNC(=O)c1cnn(-c2ccccc2OC)c1` [Compound 24], the k pseudo-first order in assay [1] was 0.0005202 s⁻¹.

`COC(=O)/C=C/CNC(=O)Cc1ccncc1` [Compound 25] gave a k pseudo-first order in assay [1] of 0.0005202 s⁻¹.

The compound `COC(=O)/C=C/CNC(=O)C1COc2c(cccc2OC)C1` (stereo not drawn) [Compound 26] registered a k pseudo-first order in assay [1] of 0.0006107 s⁻¹.

In turn, `COC(=O)/C=C/CNC(=O)c1cc(C)nc2ccc(C)cc12` [Compound 27] showed a k pseudo-first order in assay [1] of 0.0006665 s⁻¹.

On to `COC(=O)/C=C/CNC(=O)c1ccc(OC)cc1` [Compound 28], for which, in assay [1], the k pseudo-first order turned out to be 0.00042 s⁻¹.

Compound `COC(=O)/C=C/CNC(=O)c1ccnc(C)c1` [Compound 29] yielded a k pseudo-first order in assay [1] of 0.0004038 s⁻¹.

`COC(=O)/C=C/CNC(=O)c1ccc(CN2CCc3ccccc3C2)cc1` [Compound 30] yielded a k pseudo-first order in assay [1] of 0.0006579 s⁻¹.

`COC(=O)/C=C/CNC(=O)[C@@H]1CCCN1C(=O)C1CC1` [Compound 31] showed a k pseudo-first order in assay [1] of 0.0005193 s⁻¹.

`COC(=O)/C=C/CNC(=O)c1cccc(Cl)n1` [Compound 33]: the k pseudo-first order in assay [1] came to 0.0006348 s⁻¹.

`COC(=O)/C=C/CNC(=O)c1ccccc1Br` [Compound 34]: the k pseudo-first order in assay [1] worked out at 0.0007717 s⁻¹.

In assay [1], `COC(=O)/C=C/CNC(=O)c1cc(Br)ccc1N` [Compound 35] returned a k pseudo-first order of 0.0005755 s⁻¹.

`COC(=O)/C=C/CNC(=O)C(CO)c1ccccc1` (stereo not drawn) [Compound 36]: the k pseudo-first order in assay [1] turned out to be 0.00034 s⁻¹.

In assay [1], `COC(=O)/C=C/CNC(=O)Cn1nc(C)cc1C` [Compound 37] returned a k pseudo-first order of 0.0004493 s⁻¹.

As to `COC(=O)/C=C/CNC(=O)c1cc(Br)ccc1OC` [Compound 38], the k pseudo-first order in assay [1] is 0.0007728 s⁻¹.

As for `CCC(C(=O)NC/C=C/C(=O)OC)n1cccn1` (stereo not drawn) [Compound 39], in assay [1], the k pseudo-first order came out at 0.000651 s⁻¹.

Regarding `C=CCN1CC(C(=O)NC/C=C/C(=O)OC)CC1=O` (stereo not drawn) [Compound 40], the k pseudo-first order in assay [1] is 0.0004793 s⁻¹.

As for `COC(=O)/C=C/CNC(=O)c1c(C)[nH]c2c1C(=O)CCC2` [Compound 41], in assay [1], the k pseudo-first order amounted to 0.0005635 s⁻¹.

For the compound `COC(=O)/C=C/CNC(=O)Cc1c(C)nn(-c2ccccc2)c1C` [Compound 42], the k pseudo-first order in assay [1] was 0.0005281 s⁻¹.

In assay [1], `COC(=O)/C=C/CNC(=O)c1c(C)n(C)c2ccc(OC)cc12` [Compound 43] displayed a k pseudo-first order of 0.0007616 s⁻¹.

As to `COC(=O)/C=C/CNC(=O)c1cc2c([nH]c1=O)CCCC2` [Compound 44], the k pseudo-first order in assay [1] was found to be 0.0006746 s⁻¹.

`COC(=O)/C=C/CNC(=O)c1c(C)nc2cc(C)ccn12` [Compound 45] registered a k pseudo-first order in assay [1] of 0.0003961 s⁻¹.

The compound `CCn1nc(C(C)C)cc1C(=O)NC/C=C/C(=O)OC` [Compound 46] displayed a k pseudo-first order in assay [1] of 0.0007806 s⁻¹.

`COC(=O)/C=C/CNC(=O)c1c[nH]nc1-c1cccc(F)c1` [Compound 47] returned a k pseudo-first order in assay [1] of 0.0006539 s⁻¹.

For `COC(=O)/C=C/CNC(=O)C(C)n1cnc2ccccc21` (stereo not drawn) [Compound 48], the k pseudo-first order in assay [1] worked out at 0.000468 s⁻¹.

In the case of `COC(=O)/C=C/CNC(=O)c1cnn(Cc2ccccc2)c1` [Compound 49], in assay [1], the k pseudo-first order was 0.0004975 s⁻¹.

In assay [1], `COC(=O)/C=C/CNC(=O)c1n[nH]cc1Br` [Compound 50] returned a k pseudo-first order of 0.0006514 s⁻¹.

As to `COC(=O)/C=C/CNC(=O)c1ccccc1N(C)C(=O)c1ccco1` [Compound 51], in assay [1], the k pseudo-first order came out at 0.0005048 s⁻¹.

In assay [1], `COC(=O)/C=C/CNC(=O)c1cc(C2CC2)nc2ccccc12` [Compound 52] gave a k pseudo-first order of 0.0005984 s⁻¹.

In assay [1], `COC(=O)/C=C/CNC(=O)c1ccc(Cl)cn1` [Compound 53] registered a k pseudo-first order of 0.0005521 s⁻¹.

`COC(=O)/C=C/CNC(=O)CNC(=O)c1ccccc1Br` [Compound 54] displayed a k pseudo-first order in assay [1] of 0.0005048 s⁻¹.

Consider `COC(=O)/C=C/CNC(=O)Cn1c(=O)cc(C)c2ccccc21` [Compound 55], for which, in assay [1], the k pseudo-first order is 0.000452 s⁻¹.

The record behind these values is patent publication US10273208B2, “Screening methods for the binding affinity of chemical entities to biological molecules and NEDD4-1 inhibitors identified by the screening methods” (Northwestern University, priority 2014, dated 2019).
